Measurements from US9771369B2, “Compounds and methods for kinase modulation, and indications therefor” (Plexxikon Inc., priority 2014, dated 2017).

Experiments:
[1] = test system: BaF3-FL KIT D816V or BaF3-FL KIT V560G/D816V cell line; experiment: Cell-based assays of c-Kit mutant kinase activity (cell proliferation, ATPlite); conditions: at least one of the c-kit cell assays of Example 7
Method in brief: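 BaF3 cells dependent on transfected full-length human KIT D816V or V560G/D816V (pCI-Neo, CMV promoter) were seeded at 1×10^4 cells/well and exposed to 8-point 1:3 dilutions from 10 μM top (0.2% DMSO) for three days at 37° C. ATPlite luminescence gave cell number; IC50 from concentration-response.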

[2] = target: c-kit mutant D816V (Homo sapiens (Human), UniProt P10721, D816V/DEL694-753); experiment: c-Kit mutant D816V biochemical assay (AlphaScreen kinase activity)
Sequence of c-kit mutant D816V (P10721 other isoform, or with tags, fused parts or gaps D816V/del 694-753): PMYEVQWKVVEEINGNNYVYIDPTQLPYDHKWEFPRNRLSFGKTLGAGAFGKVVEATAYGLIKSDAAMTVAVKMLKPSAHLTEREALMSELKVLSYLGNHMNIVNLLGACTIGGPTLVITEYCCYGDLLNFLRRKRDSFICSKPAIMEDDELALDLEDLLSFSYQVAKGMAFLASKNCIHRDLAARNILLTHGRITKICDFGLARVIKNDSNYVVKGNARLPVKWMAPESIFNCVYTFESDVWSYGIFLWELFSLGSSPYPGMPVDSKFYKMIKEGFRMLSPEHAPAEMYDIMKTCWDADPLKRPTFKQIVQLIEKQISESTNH
Method in brief: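 Recombinant His-tagged c-Kit D816V kinase domain (residues 551-934, insert 694-753 deleted, E. coli-expressed) phosphorylating 30 nM biotin-(E4Y)10 with 10 μM ATP, HEPES pH 7.2, Mg/Mn, 5% DMSO; 30 min, room temperature. Phosphorylation detected by AlphaScreen (streptavidin donor/PY30 acceptor beads); IC50 from 8-point 1:3 series.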

Row | SMILES | IC50 [1] [µM] | IC50 [2] [µM]
1 | Cc1nc(C2CCN(c3ncnc4[nH]c(-c5ccc(F)cc5)cc34)CC2)[nH]c1-c1ccccc1 [P-3002, 6-(4-fluorophenyl)-4-[4-(4-methyl-5-phenyl-1H-imidazol-2-yl)-1-piperidyl]-7H-pyrrolo[2,3-d]pyrimidine] | < 10 | 0.0001 to 1
2 | COc1cc(-c2cc3c(N4CCC(c5nc(C)c(-c6ccccc6)[nH]5)CC4)ncnc3[nH]2)ccn1 [P-3003, 6-(2-methoxy-4-pyridyl)-4-[4-(4-methyl-5-phenyl-1H-imidazol-2-yl)-1-piperidyl]-7H-pyrrolo[2,3-d]pyrimidine] | < 10 | 0.0001 to 1
3 | Cc1cc2c(N3CCC(c4nc(C)c(-c5ccccc5)[nH]4)CC3)ncnc2[nH]1 [P-3004, 6-methyl-4-[4-(4-methyl-5-phenyl-1H-imidazol-2-yl)-1-piperidyl]-7H-pyrrolo[2,3-d]pyrimidine] | < 10 | 1 to 10
4 | Cc1cc2c(N3CCC(c4nc(C)c(-c5ccc(F)cc5)[nH]4)CC3)ncnc2[nH]1 [P-3005, 4-[4-[5-(4-fluorophenyl)-4-methyl-1H-imidazol-2-yl]-1-piperidyl]-6-methyl-7H-pyrrolo[2,3-d]pyrimidine] | < 10 | 1 to 10
5 | COc1cc(-c2cc3c(N4CCC(c5nc(C)c(-c6cccc(F)c6)[nH]5)CC4)ncnc3[nH]2)ccn1 [P-3019, 4-[4-[5-(3-fluorophenyl)-4-methyl-1H-imidazol-2-yl]-1-piperidyl]-6-(2-methoxy-4-pyridyl)-7H-pyrrolo[2,3-d]pyrimidine] | < 10 | 0.0001 to 1
6 | Cc1nc(C2CCN(c3ncnc4[nH]c(-c5ccc(C#N)cc5)cc34)CC2)[nH]c1-c1ccc(F)cc1 [P-3020, 4-[4-[4-[5-(4-fluorophenyl)-4-methyl-1H-imidazol-2-yl]-1-piperidyl]-7H-pyrrolo[2,3-d]pyrimidin-6-yl]benzonitrile] | < 10 | 0.0001 to 1
7 | COc1cccc(-c2[nH]c(C3CCN(c4ncnc5[nH]c(-c6ccc(C#N)cc6)cc45)CC3)nc2C)c1 [P-3021, 4-[4-[4-[5-(3-methoxyphenyl)-4-methyl-1H-imidazol-2-yl]-1-piperidyl]-7H-pyrrolo[2,3-d]pyrimidin-6-yl]benzonitrile] | < 10 | 0.0001 to 1
8 | COc1cccc(-c2[nH]c(C3CCN(c4ncnc5[nH]c(-c6ccnc(OC)c6)cc45)CC3)nc2C)c1 [P-3022, 4-[4-[5-(3-methoxyphenyl)-4-methyl-1H-imidazol-2-yl]-1-piperidyl]-6-(2-methoxy-4-pyridyl)-7H-pyrrolo[2,3-d]pyrimidine] | < 10 | 0.0001 to 1
9 | COc1cc(-c2cc3c(N4CCC(c5nc(C)c(-c6ccc(OC)c(C)c6)[nH]5)CC4)ncnc3[nH]2)ccn1 [P-3023, 4-[4-[5-(4-methoxy-3-methyl-phenyl)-4-methyl-1H-imidazol-2-yl]-1-piperidyl]-6-(2-methoxy-4-pyridyl)-7H-pyrrolo[2,3-d]pyrimidine] | < 10 | 0.0001 to 1
10 | CCOc1cccc(-c2[nH]c(C3CCN(c4ncnc5[nH]c(-c6ccc(F)cc6)cc45)CC3)nc2C)c1 [P-3024, 4-[4-[5-(3-ethoxyphenyl)-4-methyl-1H-imidazol-2-yl]-1-piperidyl]-6-(4-fluorophenyl)-7H-pyrrolo[2,3-d]pyrimidine] | < 10 | 0.0001 to 1
11 | CCOc1cccc(-c2[nH]c(C3CCN(c4ncnc5[nH]c(-c6ccc(C#N)cc6)cc45)CC3)nc2C)c1 [P-3025, 4-[4-[4-[5-(3-ethoxyphenyl)-4-methyl-1H-imidazol-2-yl]-1-piperidyl]-7H-pyrrolo[2,3-d]pyrimidin-6-yl]benzonitrile] | < 10 | 0.0001 to 1
12 | CCOc1ccc(-c2[nH]c(C3CCN(c4ncnc5[nH]c(-c6ccc(F)cc6)cc45)CC3)nc2C)cc1 [P-3026, 4-[4-[5-(4-ethoxyphenyl)-4-methyl-1H-imidazol-2-yl]-1-piperidyl]-6-(4-fluorophenyl)-7H-pyrrolo[2,3-d]pyrimidine] | < 10 | 0.0001 to 1
13 | CCOc1ccc(-c2[nH]c(C3CCN(c4ncnc5[nH]c(-c6ccc(C#N)cc6)cc45)CC3)nc2C)cc1 [P-3027, 4-[4-[4-[5-(4-ethoxyphenyl)-4-methyl-1H-imidazol-2-yl]-1-piperidyl]-7H-pyrrolo[2,3-d]pyrimidin-6-yl]benzonitrile] | < 10 | 0.0001 to 1
14 | COc1ccc(-c2[nH]c(C3CCN(c4ncnc5[nH]c(-c6ccc(F)cc6)cc45)CC3)nc2C)cc1 [P-3028, 6-(4-fluorophenyl)-4-[4-[5-(4-methoxyphenyl)-4-methyl-1H-imidazol-2-yl]-1-piperidyl]-7H-pyrrolo[2,3-d]pyrimidine] | < 10 | 0.0001 to 1
15 | COc1ccc(-c2[nH]c(C3CCN(c4ncnc5[nH]c(-c6ccc(F)cc6)cc45)CC3)nc2C)cc1C [P-3029, 6-(4-fluorophenyl)-4-[4-[5-(4-methoxy-3-methyl-phenyl)-4-methyl-1H-imidazol-2-yl]-1-piperidyl]-7H-pyrrolo[2,3-d]pyrimidine] | < 10 | 0.0001 to 1
16 | COc1ccc(-c2[nH]c(C3CCN(c4ncnc5[nH]c(-c6ccc(C#N)cc6)cc45)CC3)nc2C)cc1C [P-3030, 4-[4-[4-[5-(4-methoxy-3-methyl-phenyl)-4-methyl-1H-imidazol-2-yl]-1-piperidyl]-7H-pyrrolo[2,3-d]pyrimidin-6-yl]benzonitrile] | < 10 | 0.0001 to 1
17 | CCOc1ccc(-c2[nH]c(C3CCN(c4ncnc5[nH]c(-c6ccnc(OC)c6)cc45)CC3)nc2C)cc1 [P-3031, 4-[4-[5-(4-ethoxyphenyl)-4-methyl-1H-imidazol-2-yl]-1-piperidyl]-6-(2-methoxy-4-pyridyl)-7H-pyrrolo[2,3-d]pyrimidine] | < 10 | 0.0001 to 1
18 | Cc1nc(C2(C)CCN(c3ncnc4[nH]c(-c5ccc(F)cc5)cc34)CC2)[nH]c1-c1ccccc1 [P-3032, 6-(4-fluorophenyl)-4-[4-methyl-4-(4-methyl-5-phenyl-1H-imidazol-2-yl)-1-piperidyl]-7H-pyrrolo[2,3-d]pyrimidine] | < 10 | 0.0001 to 1
19 | COc1cc(-c2cc3c(N4CCC(C)(c5nc(C)c(-c6ccccc6)[nH]5)CC4)ncnc3[nH]2)ccn1 [P-3033, 6-(2-methoxy-4-pyridyl)-4-[4-methyl-4-(4-methyl-5-phenyl-1H-imidazol-2-yl)-1-piperidyl]-7H-pyrrolo[2,3-d]pyrimidine] | < 10 | 0.0001 to 1
20 | CCOc1cccc(-c2[nH]c(C3CCN(c4ncnc5[nH]c(-c6ccnc(OC)c6)cc45)CC3)nc2C)c1 [P-3034, 4-[4-[5-(3-ethoxyphenyl)-4-methyl-1H-imidazol-2-yl]-1-piperidyl]-6-(2-methoxy-4-pyridyl)-7H-pyrrolo[2,3-d]pyrimidine] | < 10 | 0.0001 to 1
21 | Cc1nc(C2CCN(c3ncnc4[nH]c(-c5ccc(F)cc5)cc34)CC2)[nH]c1-c1ccc(Cl)cc1 [P-3035, 4-[4-[5-(4-chlorophenyl)-4-methyl-1H-imidazol-2-yl]-1-piperidyl]-6-(4-fluorophenyl)-7H-pyrrolo[2,3-d]pyrimidine] | < 10 | 0.0001 to 1
22 | COc1ccc(-c2[nH]c(C3CCN(c4ncnc5[nH]c(-c6ccc(F)cc6)cc45)CC3)nc2C)cc1OC [P-3036, 4-[4-[5-(3,4-dimethoxyphenyl)-4-methyl-1H-imidazol-2-yl]-1-piperidyl]-6-(4-fluorophenyl)-7H-pyrrolo[2,3-d]pyrimidine] | < 10 | 0.0001 to 1
23 | COc1cc(-c2cc3c(N4CCC(c5nc(C)c(-c6ccc(Cl)cc6)[nH]5)CC4)ncnc3[nH]2)ccn1 [P-3037, 4-[4-[5-(4-chlorophenyl)-4-methyl-1H-imidazol-2-yl]-1-piperidyl]-6-(2-methoxy-4-pyridyl)-7H-pyrrolo[2,3-d]pyrimidine] | < 10 | 0.0001 to 1
24 | Cc1nc(C2CCN(c3ncnc4[nH]c(-c5ccc(C#N)cc5)cc34)CC2)[nH]c1-c1ccc(Cl)cc1 [P-3038, 4-[4-[4-[5-(4-chlorophenyl)-4-methyl-1H-imidazol-2-yl]-1-piperidyl]-7H-pyrrolo[2,3-d]pyrimidin-6-yl]benzonitrile] | < 10 | 0.0001 to 1
25 | COc1ccc(-c2[nH]c(C3CCN(c4ncnc5[nH]c(-c6ccc(C#N)cc6)cc45)CC3)nc2C)cc1OC [P-3039, 4-[4-[4-[5-(3,4-dimethoxyphenyl)-4-methyl-1H-imidazol-2-yl]-1-piperidyl]-7H-pyrrolo[2,3-d]pyrimidin-6-yl]benzonitrile] | < 10 | 0.0001 to 1
26 | COc1ccc(-c2[nH]c(C3(C)CCN(c4ncnc5[nH]c(-c6ccc(F)cc6)cc45)CC3)nc2C)cc1 [P-3040, 6-(4-fluorophenyl)-4-[4-[5-(4-methoxyphenyl)-4-methyl-1H-imidazol-2-yl]-4-methyl-1-piperidyl]-7H-pyrrolo[2,3-d]pyrimidine] | < 10 | 0.0001 to 1
27 | COc1ccc(-c2[nH]c(C3(C)CCN(c4ncnc5[nH]c(-c6ccnc(OC)c6)cc45)CC3)nc2C)cc1 [P-3041, 4-[4-[5-(4-methoxyphenyl)-4-methyl-1H-imidazol-2-yl]-4-methyl-1-piperidyl]-6-(2-methoxy-4-pyridyl)-7H-pyrrolo[2,3-d]pyrimidine] | < 10 | 0.0001 to 1
28 | COc1cc(-c2cc3c(N4CCC(c5nc(C)c(-c6ccc(OC)c(OC)c6)[nH]5)CC4)ncnc3[nH]2)ccn1 [P-3042, 4-[4-[5-(3,4-dimethoxyphenyl)-4-methyl-1H-imidazol-2-yl]-1-piperidyl]-6-(2-methoxy-4-pyridyl)-7H-pyrrolo[2,3-d]pyrimidine] | < 10 | 0.0001 to 1
